Assay [1] addresses Topoisomerase IV (Staphylococcus aureus, UniProt P0C1S7+P0C1U9). The assay is described as follows: Inhibition of Staphylococcus aureus DNA topoisomerase 4 decatenation activity. Type of assay: protein-complex assay.
A short description of assay [2]: Inhibition of Escherichia coli DNA topoisomerase 4 decatenation activity.
Assay [3] deals with Streptococcus pneumoniae. Put plainly: Antibacterial activity against wild type Streptococcus pneumoniae in presence of 2.5% lysed horse blood. Type of assay: functional.
Assay [4] has as its system Staphylococcus aureus. The assay is described as follows: Antibacterial activity against wild type Staphylococcus aureus. Type of assay: functional.
The test system of assay [5] is Enterococcus faecium. The assay is described as follows: Antibacterial activity against vancomycin-resistant Enterococcus faecium incubated for 20 hrs by two-fold serial dilution method. Type of assay: functional.
The test system of assay [6] is Escherichia coli. Put plainly: Antibacterial activity against wild type Escherichia coli incubated for 20 hrs by two-fold serial dilution method. Format: functional.
Assay [7] relates to Staphylococcus aureus. Put plainly: Antibacterial activity against methicillin-resistant Staphylococcus aureus incubated for 20 hrs by two-fold serial dilution method. Format: functional.
The subject of assay [8] is Moraxella catarrhalis. Put plainly: Antibacterial activity against wild type Moraxella catarrhalis incubated for 20 hrs by two-fold serial dilution method. Format: functional.
For assay [9], the system named is Staphylococcus aureus. Put plainly: Antibacterial activity against wild type Staphylococcus aureus incubated for 20 hrs by two-fold serial dilution method. Format: functional.
The test system of assay [10] is Acinetobacter baumannii. The assay is described as follows: Antibacterial activity against wild type Acinetobacter baumannii incubated for 20 hrs by two-fold serial dilution method. Type of assay: functional.
Assay [11] concerns Pseudomonas aeruginosa. Put plainly: Antibacterial activity against wild type Pseudomonas aeruginosa incubated for 20 hrs by two-fold serial dilution method. Format: functional.
The subject of assay [12] is Haemophilus influenzae. The assay is described as follows: Antibacterial activity against wild type Haemophilus influenzae incubated for 20 hrs by two-fold serial dilution method. Format: functional.
Assay [13] has as its system Escherichia coli. Put plainly: Antibacterial activity against wild type Escherichia coli. Type of assay: functional.
Assay [14] addresses DNA gyrase (Escherichia coli, UniProt P0AES4+P0AES6). Put plainly: Inhibition of Escherichia coli DNA gyrase supercoiling activity. Type of assay: protein-complex assay.
The subject of assay [15] is Staphylococcus aureus. The assay is described as follows: Antibacterial activity against wild type Staphylococcus aureus incubated for 20 hrs in presence of 50% of human serum by two-fold serial dilution method. Type of assay: functional.
Assay [16] is described as follows: Inhibition of Escherichia coli DNA topoisomerase 4 ATPase activity.
The subject of assay [17] is Enterococcus faecalis. The assay is described as follows: Antibacterial activity against wild type Enterococcus faecalis incubated for 20 hrs by two-fold serial dilution method. Type of assay: functional.
The test system of assay [18] is Streptococcus pneumoniae. Put plainly: Antibacterial activity against wild type Streptococcus pneumoniae incubated for 20 hrs in presence of 2.5% lysed horse blood by two-fold serial dilution method. Type of assay: functional.
In assay [19] the target is DNA gyrase (Staphylococcus aureus, UniProt P0A0K8+P20831). Put plainly: Inhibition of Staphylococcus aureus DNA gyrase supercoiling activity. Type of assay: protein-complex assay.
The subject of assay [20] is Pseudomonas aeruginosa. The assay is described as follows: Antibacterial activity against wild type Pseudomonas aeruginosa. Type of assay: functional.

Values after ≈ are worked out from the molar mass of the structure shown.

Topoisomerase IV, sequence (P0C1U9 whole entry): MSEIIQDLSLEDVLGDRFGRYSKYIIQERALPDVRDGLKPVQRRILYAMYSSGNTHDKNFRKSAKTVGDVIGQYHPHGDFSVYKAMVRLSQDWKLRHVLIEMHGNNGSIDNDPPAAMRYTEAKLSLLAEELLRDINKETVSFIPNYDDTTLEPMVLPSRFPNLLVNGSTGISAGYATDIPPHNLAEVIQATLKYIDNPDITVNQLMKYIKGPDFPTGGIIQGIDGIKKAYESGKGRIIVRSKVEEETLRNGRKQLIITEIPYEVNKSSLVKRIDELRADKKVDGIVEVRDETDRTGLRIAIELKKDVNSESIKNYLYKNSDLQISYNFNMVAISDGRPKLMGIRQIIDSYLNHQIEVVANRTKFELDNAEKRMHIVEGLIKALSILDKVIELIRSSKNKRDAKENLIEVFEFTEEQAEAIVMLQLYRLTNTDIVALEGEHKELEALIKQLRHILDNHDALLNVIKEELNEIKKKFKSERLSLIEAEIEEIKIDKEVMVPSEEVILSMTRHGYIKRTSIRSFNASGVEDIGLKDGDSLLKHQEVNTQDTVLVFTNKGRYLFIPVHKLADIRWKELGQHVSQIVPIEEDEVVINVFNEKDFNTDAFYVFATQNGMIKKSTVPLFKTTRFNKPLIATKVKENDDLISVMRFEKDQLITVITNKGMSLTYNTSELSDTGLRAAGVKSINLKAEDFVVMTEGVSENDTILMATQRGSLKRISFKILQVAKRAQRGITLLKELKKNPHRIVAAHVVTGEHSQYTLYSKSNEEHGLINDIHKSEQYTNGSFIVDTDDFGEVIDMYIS
Topoisomerase IV, sequence (P0C1S7 whole entry): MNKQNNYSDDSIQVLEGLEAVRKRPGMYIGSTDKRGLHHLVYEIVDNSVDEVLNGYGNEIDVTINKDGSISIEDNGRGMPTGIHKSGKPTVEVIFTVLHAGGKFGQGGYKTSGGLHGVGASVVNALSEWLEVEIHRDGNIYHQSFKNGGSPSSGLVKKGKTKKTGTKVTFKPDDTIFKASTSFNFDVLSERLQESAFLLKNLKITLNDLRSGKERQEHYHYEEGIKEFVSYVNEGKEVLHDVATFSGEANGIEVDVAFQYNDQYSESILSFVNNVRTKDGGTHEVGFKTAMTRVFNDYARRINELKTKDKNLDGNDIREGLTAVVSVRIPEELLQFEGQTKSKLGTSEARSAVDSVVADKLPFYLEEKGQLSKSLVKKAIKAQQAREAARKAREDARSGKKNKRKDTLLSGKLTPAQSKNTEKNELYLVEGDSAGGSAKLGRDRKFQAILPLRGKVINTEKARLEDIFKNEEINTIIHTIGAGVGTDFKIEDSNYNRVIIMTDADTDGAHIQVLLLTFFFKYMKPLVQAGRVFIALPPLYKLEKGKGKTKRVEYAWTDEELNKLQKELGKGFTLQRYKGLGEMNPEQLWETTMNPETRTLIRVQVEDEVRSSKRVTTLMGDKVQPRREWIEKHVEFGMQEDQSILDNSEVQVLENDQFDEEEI
DNA gyrase (Staphylococcus aureus, UniProt P0A0K8+P20831), sequence (P0A0K8 whole entry): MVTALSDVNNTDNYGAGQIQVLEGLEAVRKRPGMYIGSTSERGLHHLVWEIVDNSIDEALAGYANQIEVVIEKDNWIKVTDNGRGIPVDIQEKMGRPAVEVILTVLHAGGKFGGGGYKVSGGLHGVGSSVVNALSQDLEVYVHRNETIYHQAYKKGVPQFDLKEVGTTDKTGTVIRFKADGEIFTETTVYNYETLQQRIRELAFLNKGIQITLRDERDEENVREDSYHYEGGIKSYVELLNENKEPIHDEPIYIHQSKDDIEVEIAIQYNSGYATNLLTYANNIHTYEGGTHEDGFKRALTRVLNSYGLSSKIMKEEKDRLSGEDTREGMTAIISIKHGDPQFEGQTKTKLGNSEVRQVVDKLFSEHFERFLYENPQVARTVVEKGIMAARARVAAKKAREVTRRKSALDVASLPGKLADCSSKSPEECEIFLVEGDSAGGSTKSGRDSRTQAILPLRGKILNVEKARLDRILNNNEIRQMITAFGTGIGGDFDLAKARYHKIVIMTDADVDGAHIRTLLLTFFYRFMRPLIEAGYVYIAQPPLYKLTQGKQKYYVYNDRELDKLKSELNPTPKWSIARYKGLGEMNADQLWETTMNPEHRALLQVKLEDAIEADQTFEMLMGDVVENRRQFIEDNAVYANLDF
DNA gyrase (Staphylococcus aureus, UniProt P0A0K8+P20831), sequence (P20831 whole entry): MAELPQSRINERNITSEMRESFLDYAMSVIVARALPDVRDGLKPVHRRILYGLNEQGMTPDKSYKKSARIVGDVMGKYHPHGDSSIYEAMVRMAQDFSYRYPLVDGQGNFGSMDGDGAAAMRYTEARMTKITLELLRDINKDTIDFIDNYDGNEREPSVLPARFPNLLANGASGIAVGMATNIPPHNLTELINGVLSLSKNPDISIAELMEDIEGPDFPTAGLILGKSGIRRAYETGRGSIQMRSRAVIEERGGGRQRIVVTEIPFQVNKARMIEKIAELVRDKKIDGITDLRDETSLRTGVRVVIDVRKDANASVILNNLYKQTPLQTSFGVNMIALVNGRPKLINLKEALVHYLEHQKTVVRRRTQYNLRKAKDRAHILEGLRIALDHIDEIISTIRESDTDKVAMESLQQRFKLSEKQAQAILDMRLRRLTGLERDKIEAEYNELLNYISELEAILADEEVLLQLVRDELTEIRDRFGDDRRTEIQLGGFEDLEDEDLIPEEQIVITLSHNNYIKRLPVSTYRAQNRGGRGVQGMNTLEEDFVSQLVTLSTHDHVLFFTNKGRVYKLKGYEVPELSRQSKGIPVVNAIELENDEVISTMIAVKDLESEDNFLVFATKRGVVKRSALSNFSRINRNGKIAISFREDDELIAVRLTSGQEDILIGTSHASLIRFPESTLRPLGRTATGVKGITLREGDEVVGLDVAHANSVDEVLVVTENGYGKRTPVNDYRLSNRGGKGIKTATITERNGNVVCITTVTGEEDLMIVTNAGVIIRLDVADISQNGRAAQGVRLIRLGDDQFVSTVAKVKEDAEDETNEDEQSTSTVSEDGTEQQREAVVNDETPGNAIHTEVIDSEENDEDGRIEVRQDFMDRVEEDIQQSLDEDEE

Usually IC50 stands for the concentration needed to halve the response being measured. Read a high IC50 as a need for much substance. As to `CO[C@@H]1[C@@H](OC(=O)c2ccc(C)[nH]2)[C@@H](O)[C@H](Oc2ccc3c(O)c(NC(=O)c4ccc(O)c(CC=C(C)C)c4)c(=O)oc3c2Cl)OC1(C)C` [CHLOROBIOCIN], the IC50 worked out at 10 µM in assay [1] and 3 µM in [2]. In addition, the MIC in assay [3] was 2 mg/L; in assay [4] it was under 0.06 mg/L.

As to `C[C@H]1COc2c(N3CCN(C)CC3)c(F)cc3c(=O)c(C(=O)O)cn1c23.C[C@H]1COc2c(N3CCN(C)CC3)c(F)cc3c(=O)c(C(=O)O)cn1c23.O` [LEVOFLOXACIN], the MIC in assay [5] turned out to be 4 mg/L; in assay [6] it was 0.031 mg/L; in [7] it was 32 mg/L; in [8], 1 mg/L; in assay [9], 0.125 mg/L; in assay [10], 0.125 mg/L. Also, the MIC is 0.5 mg/L in assay [11] and under 0.015 mg/L in assay [12].

With `Cc1c(O)cc(O)c2c1C(=O)OC[C@H](NC(=O)[C@@H]1[C@H](O)CCN1C(=O)[C@@H](N)CO)C(=O)N[C@H](C(=O)N[C@@H](C)C(=O)O)CSC2`, the MIC in assay [13] and in assay [4] was over 128 mg/L in each case. Besides, the IC50 in assay [14] is 0.05 µM.

Take `CO[C@@H]1[C@@H](OC(N)=O)[C@@H](O)[C@H](Oc2ccc3c(O)c(NC(=O)c4ccc(O)c(CC=C(C)C)c4)c(=O)oc3c2C)OC1(C)C` [NOVOBIOCIN]: the MIC in [6] was over 32 mg/L; in assay [7] it was 0.06 mg/L (≈ 0.0979 µM); in assay [15], 16 mg/L; in [8] it was over 32 mg/L; in assay [9], 0.25 mg/L (≈ 0.408 µM); in assay [17], 32 mg/L (≈ 52.2 µM). Moreover, the MIC in [11] came to 100 mg/L (≈ 163 µM); in assay [12], 0.12 mg/L (≈ 0.196 µM); in [18], 1 mg/L. Further, the results for the IC50 in [16], in [1] and in assay [2] were 0.45 µM, 35 µM and 10 µM, respectively.

On to `CO[C@@H]1[C@@H](OC(=O)c2ccc(C)[nH]2)[C@@H](O)[C@H](Oc2ccc3c(O)c(NC(=O)c4c[nH]c(C(=O)Nc5c(O)c6ccc(O[C@@H]7OC(C)(C)[C@H](OC)[C@@H](OC(=O)c8ccc(C)[nH]8)[C@H]7O)c(C)c6oc5=O)c4C)c(=O)oc3c2C)OC1(C)C`, for which the IC50 turned out to be 0.006 µM in [19], 100 µM in assay [1], 5 µM in assay [2] and 0.03 µM in assay [14]. Also, the MIC in assay [20] is 12.5 mg/L (≈ 11.3 µM); in assay [13] it was 6.25 mg/L (≈ 5.63 µM); in assay [3], 0.78 mg/L; in assay [4], 0.0012 mg/L (≈ 0.00108 µM).

For the origin of these results see ChEMBL document CHEMBL5252521, “Discovery and development of kibdelomycin, a new class of broad-spectrum antibiotics targeting the clinically proven bacterial type II topoisomerase” (Bioorg Med Chem, 2016).
